Data from patent publication US4105651A (The United States of America as represented by the …, priority 1976, dated 1978).
Where two headings read alike, the source gives them in different places.

System: opiate receptor sites
Description: The tests which were made in the laboratory were of the myenteric plexus-longitudinal muscle of the guinea pig ileum and the vas deferens of the mouse. In the whole animal the rates of onset and recovery are directly related to lipid solubility which facilitates drug movement to and from the brain.

## CC(C)C[C@H](NC(=O)[C@H](Cc1ccccc1)NC(=O)CNC(=O)CNC(=O)[C@@H](N)Cc1ccc(O)cc1)C(=O)O [leucine-enkephalin, H-Tyr-Gly-Gly-Phe-Leu-OH]
Guinea pig ileum
  agonist activity: inhibition of electrically evoked contractions: dose-related inhibition
Mouse vas deferens
  agonist activity: inhibition of electrically evoked contractions: dose-related inhibition

## CSCC[C@H](NC(=O)[C@H](Cc1ccccc1)NC(=O)CNC(=O)CNC(=O)[C@@H](N)Cc1ccc(O)cc1)C(=O)O [methionine-enkephalin, H-Tyr-Gly-Gly-Phe-Met-OH]
Guinea pig ileum
  agonist activity: inhibition of electrically evoked contractions: dose-related inhibition
Mouse vas deferens
  agonist activity: inhibition of electrically evoked contractions: dose-related inhibition
